Drawing on US6147100A, “Pyrrolidine derivatives having phospholipase A2 inhibitory activity” (Shionogi & Co., Ltd., priority 1997, dated 2000), this text covers IC50 for 34 molecules.

The target of assay [1] is T1, cPLA2 (Homo sapiens, UniProt P47712).
T1 sequence (P47712 1-749): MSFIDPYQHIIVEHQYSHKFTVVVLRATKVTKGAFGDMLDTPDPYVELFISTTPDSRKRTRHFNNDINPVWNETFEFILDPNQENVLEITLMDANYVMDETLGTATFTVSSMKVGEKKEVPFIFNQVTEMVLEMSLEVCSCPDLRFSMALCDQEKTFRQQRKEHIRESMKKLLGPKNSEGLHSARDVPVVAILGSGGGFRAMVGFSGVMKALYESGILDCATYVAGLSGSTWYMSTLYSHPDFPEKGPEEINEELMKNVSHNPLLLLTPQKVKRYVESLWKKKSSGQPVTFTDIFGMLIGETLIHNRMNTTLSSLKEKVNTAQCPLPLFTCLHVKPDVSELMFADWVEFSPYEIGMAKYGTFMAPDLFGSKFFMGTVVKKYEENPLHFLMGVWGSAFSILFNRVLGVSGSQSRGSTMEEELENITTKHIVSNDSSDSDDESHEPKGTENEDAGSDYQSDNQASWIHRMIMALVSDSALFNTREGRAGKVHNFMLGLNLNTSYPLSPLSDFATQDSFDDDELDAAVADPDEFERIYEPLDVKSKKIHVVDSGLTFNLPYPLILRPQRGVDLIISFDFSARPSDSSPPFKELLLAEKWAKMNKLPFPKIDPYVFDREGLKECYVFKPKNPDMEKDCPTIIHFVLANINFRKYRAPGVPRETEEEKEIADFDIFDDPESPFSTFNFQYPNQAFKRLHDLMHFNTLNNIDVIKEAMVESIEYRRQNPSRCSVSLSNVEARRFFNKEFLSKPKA
Nature of the assay: cPLA2 Inhibitory Activity. The class given is biochemical. To be noted: 1-palmitoyl-2-[14C]-arachidonoyl-sn-glycero-3-phosphocholine 2.5 μM, sn-1,2-dioleoylglycerol 1.25 μM; pH 7.5, 15 min at 37° C. The protocol:
Test Example 1 cPLA2 Inhibitory Activity The compounds of the present invention were tested for the cPLA2 inhibitory activity according to the method disclosed in […]. Roberts, […], and J. E. Putnam, J. Biol. Chem., 1991, 266, 5268-5272 as outlined below. […] The reaction mixture includes 50 mM HEPES buffer (pH 7.5), 1 mM calcium chloride, 150 mM sodium chloride, 0.1 mg/ml bovine serum albumin, and 1.7 mM dithiothreitol. To the reaction mixture was added the compound of the present invention and the substrate solution. The reaction was allowed to start by adding an enzyme and continued for 15 min at 37° C. The fatty acids released by the reaction were extracted by the method described in V. P. Dole, and H. Meinertz, J. Biol. Chem., 1960, 235, 2595-2599 and its radiation activity was measured on a liquid scintillation counter. Control was obtained by conducting the experiment in the same manner except that a compound of the present invention was not added.

Assay [2] relates to production of prostaglandin E2 by human fibroblasts. In words: Inhibition of Production of Prostaglandin E2 in Human Fibroblasts (IL-1 stimulation). To be noted: Fibroblast; human fibroblasts under stimulation with IL-1. Format: cell-based. The protocol: Test Example 2 Inhibition of Production of Prostaglandin E2 in Human Fibroblasts.
In order to examine the availability of the composition for inhibiting cytosolic phospholipase A2 (cPLA2) on the cells, the compounds of the present invention were tested for the effect on the production of prostaglandin E2 by human fibroblasts under the stimulation with IL-1 according to the method of J. M. Dayer et al (CACHECTIN/TUMOR NECROSIS FACTOR STIMULATES COLLAGENASE AND PROSTAGLANDIN E2 PRODUCTION BY HUMAN SYNOVIAL CELLS AND DERMAL FIBROBLASTS; J. M. Dayer, B, Beutler and A, Cerami, J. EXP. Med., 1985, 162, 2163-2168.).

As a reminder, the IC50 is the concentration that inhibits the measured activity by half. Read a high IC50 as weaker potency in that assay.

The structures appear in SMILES notation.

In the case of `O=C1NC(=O)/C(=C/c2ccc(C(=O)NC[C@@H]3C[C@@H](OCc4ccccc4-c4ccccc4)CN3C(=O)c3ccccc3C(=O)c3ccccc3)cc2)S1` [Compound A-1], the IC50 in assay [1] and in assay [2] was 170 nM each time. With `O=C1NC(=O)/C(=C/c2ccc(C(=O)NC[C@@H]3C[C@@H](OCc4ccccc4)CN3C(=O)c3ccccc3C(=O)c3ccccc3)cc2)S1` [Compound A-2], the IC50 in assay [1] came out at 1200 nM; in assay [2] it was 730 nM.

As to `O=C1NC(=O)/C(=C/c2ccc(C(=O)NC[C@@H]3C[C@@H](OCc4ccc(F)cc4F)CN3C(=O)c3ccccc3C(=O)c3ccccc3)cc2)S1` [Compound A-3], the figures for the IC50 in assay [1] and in assay [2] were 1400 nM and 900 nM, respectively. The corresponding values for `O=C1NC(=O)/C(=C/c2ccc(C(=O)NC[C@@H]3C[C@@H](OCc4ccc(-c5ccccc5)cc4)CN3C(=O)c3ccccc3C(=O)c3ccccc3)cc2)S1` [Compound A-4] are 300 nM and 210 nM.

For `Cc1ccccc1CO[C@@H]1C[C@@H](CNC(=O)c2ccc(/C=C3\SC(=O)NC3=O)cc2)N(C(=O)c2ccccc2C(=O)c2ccc(F)cc2)C1` [Compound A-5], the concentration for half-maximal inhibition (IC50) amounted to 580 nM in assay [1] and 260 nM in assay [2]. The corresponding values for `O=C1NC(=O)/C(=C/c2ccc(C(=O)NC[C@@H]3C[C@@H](OCc4ccccc4-c4ccccc4)CN3C(=O)CCC(=O)c3ccc(F)cc3)cc2)S1` [Compound A-6] are 4800 nM and 8900 nM. In the same order, the values of `O=C1NC(=O)/C(=C/c2ccc(C(=O)NC[C@@H]3C[C@@H](OCc4ccccc4-c4ccccc4)CN3C(=O)C3CCCCC3C(=O)c3ccccc3)cc2)S1` (some centres unmarked) [Compound A-10] are 3200 nM and 470 nM. In the case of `O=C1NC(=O)/C(=C/c2ccc(C(=O)NC[C@@H]3C[C@@H](OCc4ccccc4-c4ccccc4)CN3C(=O)c3ncccc3C(=O)c3ccccc3)cc2)S1` [Compound A-11], the IC50 amounted to 860 nM in assay [1] and 230 nM in assay [2]. In the same order, the values of `O=C1NC(=O)/C(=C/c2ccc(C(=O)NC[C@@H]3C[C@@H](OCc4ccccc4-c4ccccc4)CN3C(=O)c3sccc3C(=O)c3ccccc3)cc2)S1` [Compound A-12] are 3100 nM and 100 nM. As for `O=C1NC(=O)/C(=C/c2ccc(C(=O)NC[C@@H]3C[C@@H](OCc4ccccc4-c4ccccc4)CN3C(=O)c3ccccc3C(=O)C3CCCCC3)cc2)S1` [Compound A-14], the 50% inhibitory concentration (IC50) in assay [1] amounted to 370 nM; in assay [2] it was 330 nM.

Turning to `O=C1NC(=O)/C(=C/c2ccc(C(=O)NC[C@@H]3C[C@@H](OCc4ccccc4-c4ccccc4)CN3C(=O)c3ccccc3C(=O)c3ccc(F)cc3)cc2)S1` [Compound A-16], the values for the half-inhibitory concentration (IC50) in assay [1] and in assay [2] were 79 nM and 260 nM, respectively. In the same order, the values of `O=C1NC(=O)/C(=C/c2ccc(C(=O)NC[C@@H]3C[C@@H](OCc4ccccc4-c4ccccc4)CN3C(=O)c3ccccc3C(=O)c3ccoc3)cc2)S1` [Compound A-17] are 1600 nM and 700 nM. In the same order, the values of `O=C1NC(=O)/C(=C/c2ccc(C(=O)NC[C@@H]3C[C@@H](OCc4ccccc4-c4ccccc4)CN3C(=O)c3ccccc3C(=O)c3ccsc3)cc2)S1` [Compound A-18] are 1200 nM and 380 nM. `O=C1NC(=S)S/C1=C\c1ccc(S(=O)(=O)NC[C@@H]2C[C@@H](OCc3ccccc3-c3ccccc3)CN2C(=O)c2ccccc2C(=O)c2ccc(F)cc2)s1` [Compound A-61] came in with an IC50 in assay [2] of 970 nM. In turn, `O=C1NC(=S)S/C1=C\c1ccc(S(=O)(=O)NC[C@@H]2C[C@@H](OCc3ccccc3-c3ccccc3)CN2C(=O)c2ccccc2C(=O)c2ccc(F)cc2)cc1` [Compound A-63] returned an IC50 in assay [2] of 900 nM. The IC50 values of the last two molecules are within 1.5-fold of each other. Same read-out and setting: the same measure for `CC(C)c1cccc(Br)c1O[C@@H]1C[C@@H](CNC(=O)c2ccc(/C=C3\SC(=O)NC3=O)cc2)N(C(=O)c2ccccc2C(=O)c2ccc(F)cc2)C1` [Compound A-100]: 320 nM.

In the case of `O=C1NC(=O)/C(=C/c2ccc(CN(C[C@@H]3C[C@@H](OCc4ccccc4-c4ccccc4)CN3C(=O)c3ccccc3C(=O)c3ccc(F)cc3)C(=O)c3ccccc3)cc2)S1` [Compound G-9], the IC50 in assay [1] stood at 1300 nM. Turning to `CN(C(=O)[C@@H]1C[C@@H](OCc2ccccc2-c2ccccc2)CN1C(=O)c1ccccc1C(=O)c1ccc(F)cc1)c1ccc(/C=C2\SC(=O)NC2=O)cc1` [Compound G-10], the concentration for half-maximal inhibition (IC50) in assay [1] turned out to be 2400 nM.

Molecule `CN(C(=O)[C@@H]1C[C@@H](OCc2ccccc2-c2ccccc2)CN1C(=O)c1ccccc1C(=O)c1ccc(F)cc1)c1ccc(/C=C2\SC(=S)NC2=O)cc1` [Compound G-11] yielded a half-inhibitory concentration (IC50) in assay [1] of 4000 nM. On the same count and under the same terms, the same measure for `CN(C(=O)[C@@H]1C[C@@H](OCc2ccccc2-c2ccccc2)CN1C(=O)c1ccccc1C(=O)c1ccc(F)cc1F)c1ccc(/C=C2\SC(=S)NC2=O)cc1` [Compound G-12]: 2800 nM. On the same count and under the same terms, in the case of `CN(C(=O)C[C@@H]1C[C@@H](OCc2ccccc2-c2ccccc2)CN1C(=O)c1ccccc1C(=O)c1ccc(F)cc1)c1ccc(/C=C2\SC(=O)NC2=O)cc1` [Compound G-13] it was 5600 nM; in that of `O=C1NC(=S)SC1=C[C@@H]1C[C@@H](OCc2ccccc2-c2ccccc2)CN1C(=O)c1ccccc1C(=O)c1ccc(F)cc1` [Compound H-1], 10000 nM; in that of `O=C1NC(=O)/C(=C/C2CCN(C(=O)[C@@H]3C[C@@H](SCc4ccccc4-c4ccccc4)CN3C(=O)c3ccccc3C(=O)c3ccc(F)cc3)CC2)S1` [Compound J-5], 8600 nM. Still for that read-out and setting: the same measure for `O=C1NC(=S)S/C1=C\C1CCN(C(=O)[C@@H]2C[C@@H](SCc3ccccc3-c3ccccc3)CN2C(=O)c2ccccc2C(=O)c2ccc(F)cc2)CC1` [Compound J-6]: 13000 nM; for `CN(Cc1ccccc1)[C@@H]1C[C@@H](CNC(=O)c2ccc(/C=C3\SC(=O)NC3=O)cc2)N(C(=O)c2ccccc2C(=O)c2ccc(F)cc2)C1` [Compound M-1]: 1500 nM. For the molecule `CN(Cc1ccccc1)[C@@H]1C[C@@H](CNC(=O)c2ccc(/C=C3\SC(=S)NC3=O)cc2)N(C(=O)c2ccccc2C(=O)c2ccc(F)cc2)C1` [Compound M-2], the half-maximal inhibitory concentration (IC50) in assay [1] turned out to be 1400 nM. This IC50 and that of the molecule before are within 1.5-fold of each other. The same measure, in the same setting: in the case of `CC(C)N(Cc1ccccc1)[C@@H]1C[C@@H](CNC(=O)c2ccc(/C=C3\SC(=S)NC3=O)cc2)N(C(=O)c2ccccc2C(=O)c2ccc(F)cc2)C1` [Compound M-4] it was 140 nM; in that of `CC(C)CN(C(c1ccccc1)c1ccccc1)[C@@H]1C[C@@H](CNC(=O)c2ccc(/C=C3\SC(=O)NC3=O)cc2)N(C(=O)c2ccccc2C(=O)c2ccc(F)cc2)C1` [Compound M-13], 13 nM. Still for that read-out and setting: the same measure for `CC(C)CN(CC(C)C)[C@@H]1C[C@@H](CNC(=O)c2ccc(/C=C3\SC(=O)NC3=O)cc2)N(C(=O)c2ccccc2C(=O)c2ccc(F)cc2)C1` [Compound M-15]: 150 nM; for `O=C1NC(=O)/C(=C/c2ccc(C(=O)NC[C@@H]3C[C@@H](NC(=O)c4ccccc4-c4ccccc4)CN3C(=O)c3ccccc3C(=O)c3ccc(F)cc3)cc2)S1` [Compound M-16]: 2000 nM. As for `CC(C)CN(Cc1ccccc1-c1ccccc1)[C@@H]1C[C@@H](CNC(=O)/C=C/c2ccc(/C=C3\SC(=O)NC3=O)cc2)N(C(=O)c2ccccc2C(=O)c2ccc(F)cc2)C1` [Compound M-19], in assay [1], 3.1 nM corresponded to half-maximal inhibition (IC50). This IC50 is about 650-fold lower than that of the molecule before.

For `CC(C)CN(C(c1ccccc1)c1ccccc1)[C@@H]1C[C@@H](CNC(=O)/C=C/c2ccc(/C=C3\SC(=O)NC3=O)cc2)N(C(=O)c2ccccc2C(=O)c2ccc(F)cc2)C1` [Compound M-20], in assay [1], inhibition was half-maximal at 6.4 nM (IC50). Regarding `CCN(Cc1ccccc1-c1ccccc1)[C@@H]1C[C@@H](C(=O)Nc2ccc(/C=C3\SC(=O)NC3=O)cc2)N(C(=O)c2ccccc2C(=O)c2ccc(F)cc2)C1` [Compound N-4], the IC50 in assay [1] was 69 nM.

For the molecule `CCN(Cc1ccccc1-c1ccccc1)[C@@H]1C[C@@H](C(=O)Nc2ccc(/C=C3\SC(=S)NC3=O)cc2)N(C(=O)c2ccccc2C(=O)c2ccc(F)cc2)C1` [Compound N-5], half-maximal inhibition in assay [1] (IC50) was put at 240 nM. This IC50 lies about 3.5-fold higher than the previous one.
